Data on 8 molecules can be found in ChEMBL document CHEMBL5137094, “Construction of Covalent Bisubstrate Inhibitor of Protein Kinase Reacting with Cysteine Residue at Substrate-Binding Site” (J Med Chem, 2022).

As a reminder, the IC50 is the concentration that gives 50% inhibition. The term half-life denotes the time in which the quantity being followed falls by half. As usually defined, the Kd is the constant that tells how readily two partners part at equilibrium.

The target in data set [1] is T1, cAMP-dependent protein kinase catalytic subunit alpha (Homo sapiens, UniProt P17612). Kind of data set: Irreversible inhibition of ARC-1063 fluorescent probe binding to recombinant human PKAC-alpha incubated for 22 hrs followed by probe addition at 20 nM and further incubated for 1 hr by time-gated luminescence intensity based displacement assay.
Data set [2] deals with T1, cAMP-dependent protein kinase catalytic subunit alpha. Description: Inhibition of ARC-1063 fluorescent probe binding to recombinant human PKAC-alpha incubated for 22 hrs by time-gated luminescence intensity based displacement assay.
For data set [3] the target is unchanged. Description: Inhibition of ARC-1063 fluorescent probe binding to recombinant human PKAC-alpha incubated for 1 hr by time-gated luminescence intensity based displacement assay.
For data set [4] the target is unchanged. Kind of data set: Displacement of ARC-1063 fluorescent probe from recombinant human PKAC-alpha assessed as dissociation half life preincubated for 1 hr followed by photoluminescent probe addition by time-gated luminescence intensity based assay.
For data set [5] the target is unchanged. Description: Covalent inhibition of human recombinant PKAC-alpha assessed as inhibition constant.
For data set [6] the target is unchanged. Kind of data set: Binding affinity to human recombinant PKAC-alpha assessed as reduction in TGLI signal at 10 uM pretreated with compound followed by ARC-1063 fluorescent probe addition by time-gated luminescence intensity based displacement assay. As to conditions: time 60-480 min, TDE = time-dependent effect.
For data set [7] the target is unchanged. Kind of data set: Binding affinity to human recombinant PKACalpha assessed as compound-protein adduct formation by measuring half life at 30 degreeC.
Data set [8] shares this target. Description: Binding affinity to human recombinant PKAC-alpha assessed as inactivation constant incubated for 1 hr by time-gated luminescence intensity based displacement assay.
Data set [9] in a line: GSH reactivity in potassium phosphate buffer at pH 7.4 assessed as half life at 0.15 mM at 37 degreeC measured for 30 to 60 mins by HPLC-MS analysis. The class given is physicochemical. As to conditions: potassium phosphate buffer with GSH, time 30-60 min.
For data set [10], the target named is T1, cAMP-dependent protein kinase catalytic subunit alpha. Kind of data set: Binding affinity to human recombinant PKAC-alpha assessed as inactivation constant measured upto 60 mins by Western blot analysis.
Data set [11] shares this target. Description: Displacement of ARC-1063 fluorescent probe from recombinant human PKAC-alpha assessed as dissociation equilibrium constant preincubated for 1 hr followed by photoluminescent probe addition by time-gated luminescence intensity based assay.
The target is the same in data set [12]. Kind of data set: Displacement of ARC-1063 fluorescent probe from recombinant human PKAC-alpha assessed as binding constant (kon) preincubated for 1 hr followed by photoluminescent probe addition by time-gated luminescence intensity based assay.

Each structure is given as a SMILES string. Where only a bound is given, the exact number is not on record here.

`N=C(N)NCCC[C@@H](NC(=O)CCCCCNC(=O)[C@@H](CCCNC(=N)N)NC(=O)CCCCCCCC(=O)N1CCN(c2ncnc3[nH]ccc23)CC1)C(N)=O`: the figures for the IC50 in data set [1], in data set [2] and in data set [3] were 5300 nM, 500 nM and 400 nM, respectively.

For `CC[C@H](C)[C@H](NC(=O)CCC(=O)N[C@@H](CCCCNC(=O)[C@@H](CCCNC(=N)N)NC(=O)CCCCCCCC(=O)N1CCN(c2ncnc3[nH]ccc23)CC1)C(N)=O)C(=O)NCC(=O)CF`, the T1/2 in data set [4] is above 2.5 h; in [7] it was 5.76 h. Also, in [5], the Ki is 4.2 nM. For the same molecule, the Activity result in data set [6] was “Tde”. For the same molecule, the Kinact in data set [8] was 3.3 10^-5/s.

With `NC(=O)CF` [MONOFLUOROACETAMIDE], the half-life at 150 µM in data set [9] was above 70 h.

Take `CC[C@H](C)[C@H](NC(=O)CCC(=O)N[C@@H](CCCCNC(=O)[C@@H](CCCNC(=N)N)NC(=O)CCCCCCCC(=O)N1CCN(c2ncnc3[nH]ccc23)CC1)C(=O)N[C@H](CCCNC(=N)N)C(=O)N[C@H](CCCNC(=N)N)C(=O)N[C@H](CCCNC(=N)N)C(N)=O)C(=O)NCC(=O)CF`: the Kinact in data set [10] was 4.2 10^-4/s; in data set [8] it was 5.1 10^-4/s. The Ki in [5] turned out to be 0.0068 nM. Also, the Activity result in data set [6] was “Tde”.

Consider `CC[C@H](C)[C@H](NC(=O)CCC(=O)N[C@@H](CCCCNC(=O)[C@@H](CCCNC(=N)N)NC(=O)CCCCCCCC(=O)N1CCN(c2ncnc3[nH]ccc23)CC1)C(N)=O)C(=O)NCC(C)=O`, for which the T1/2 in [4] stood at 0.00167 h. Also, the Kd in data set [11] stood at 4.2 nM. In [12], the K was 3.3 10^7/M/s. Besides, in data set [3], the IC50 worked out at 6100 nM.

`CC[C@H](C)[C@H](NC(=O)CCC(=O)N[C@@H](CCCCNC(=O)[C@@H](CCCNC(=N)N)NC(=O)CCCCCCCC(=O)N1CCN(c2ncnc3[nH]ccc23)CC1)C(=O)N[C@H](CCCNC(=N)N)C(N)=O)C(=O)NCC(C)=O`: the T1/2 in data set [4] was 0.00833 h. Besides, the Kd in data set [11] was determined as 0.63 nM. In data set [12], the K was 3.8 10^7/M/s. For the same molecule, in [3], the IC50 was 790 nM.

`CC[C@H](C)[C@H](NC(=O)CCC(=O)N[C@@H](CCCCNC(=O)[C@@H](CCCNC(=N)N)NC(=O)CCCCCCCC(=O)N1CCN(c2ncnc3[nH]ccc23)CC1)C(=O)N[C@H](CCCNC(=N)N)C(N)=O)C(=O)NCC(=O)CF`: the T1/2 in data set [4] was above 2.5 h; in [7], 2.52 h. Further, the IC50 in data set [1] came out at 800 nM; in data set [2], 500 nM; in data set [3], 1200 nM. For the same molecule, in data set [5], the Ki amounted to 0.63 nM. For the same molecule, in data set [6], the Activity result is “Tde”. For the same molecule, in data set [8], the Kinact is 7.7 10^-5/s.

For the molecule `CC[C@H](C)[C@H](NC(=O)CCC(=O)N[C@@H](CCCCNC(=O)[C@@H](CCCNC(=N)N)NC(=O)CCCCCCCC(=O)N1CCN(c2ncnc3[nH]ccc23)CC1)C(=O)N[C@H](CCCNC(=N)N)C(=O)N[C@H](CCCNC(=N)N)C(=O)N[C@H](CCCNC(=N)N)C(N)=O)C(=O)NCC(C)=O`, in [4], the T1/2 is 0.185 h. Besides, the Kd in data set [11] was found to be 0.0049 nM. Moreover, the K in [12] was 2.2 10^8/M/s. Further, in data set [3], the IC50 stood at 5.6 nM.
